Residues, ends and D or L forms follow the SMILES beside them. *: point of attachment. X7 = C[C@@H](COC(=O)NCN1c2cc(F)cc3c(=O)[nH]nc(c23)[C@H](c2ncnn2C)[C@H]1c1ccc(F)cc1)S*; X8 = Cn1ncnc1[C@H]1c2n[nH]c(=O)c3cc(F)cc(c23)N(CNC(=O)OCC2(S*)CCC2)[C@@H]1c1ccc(F)cc1; X1 = Cn1ncnc1[C@H]1c2n[nH]c(=O)c3cc(F)cc(c23)N(CNC(=O)OCCS*)[C@@H]1c1ccc(F)cc1
Experiments:
DLD-1 BRCA2−/− cells = experiment: Growth delay assay; format: cell-based, Human; conditions: pH 7.4, BRCA (−/−) DLD-1, 96 h
Method: Cells were plated in 96 well black walled-clear bottom plates (Griener), DLD-1 WT cells at 2500 cells per well, DLD-1 BRCA2−/− at 5000 cells per well, in growth media containing 10% FBS. Cells were allowed to adhere at room temperature for 60 minutes before returning to a 37 C, 5% CO2 incubator. After 24 hours, media was removed and replaced with fresh growth media containing various drug concentrations. Each drug concentration was added in triplicate. Non-drug treated controls contained growth media only. Cells were returned to the incubator. Ninety-six hours after addition of drug, cells were fixed with 4% paraformaldehyde for 20 minutes and stained with Hoechst at 1 ug/mL. The plates were imaged on a Cytation 5 auto imager (BioTek) and cells were counted using CellProfiler (http://cellprofiler.org). The percent cell growth delay was calculated and data plotted using GraphPad Prism.

PARP = PARP (Homo sapiens, UniProt P09874); experiment: Enzymatic Assay 2: HT Universal Chemiluminescent PARP Assay of cleaved compounds; conditions: read-out: IC50 Enzymatic Assay 2; Examples cleaved per Example A (crude cleavage solution); R^8H starting materials as such;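 also: PARP reaction with activated DNA run 1 h at room temperature, product detected via streptavidin-HRP and luminescence endpoint reading on a plate reader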
Sequence of PARP (P09874 whole entry): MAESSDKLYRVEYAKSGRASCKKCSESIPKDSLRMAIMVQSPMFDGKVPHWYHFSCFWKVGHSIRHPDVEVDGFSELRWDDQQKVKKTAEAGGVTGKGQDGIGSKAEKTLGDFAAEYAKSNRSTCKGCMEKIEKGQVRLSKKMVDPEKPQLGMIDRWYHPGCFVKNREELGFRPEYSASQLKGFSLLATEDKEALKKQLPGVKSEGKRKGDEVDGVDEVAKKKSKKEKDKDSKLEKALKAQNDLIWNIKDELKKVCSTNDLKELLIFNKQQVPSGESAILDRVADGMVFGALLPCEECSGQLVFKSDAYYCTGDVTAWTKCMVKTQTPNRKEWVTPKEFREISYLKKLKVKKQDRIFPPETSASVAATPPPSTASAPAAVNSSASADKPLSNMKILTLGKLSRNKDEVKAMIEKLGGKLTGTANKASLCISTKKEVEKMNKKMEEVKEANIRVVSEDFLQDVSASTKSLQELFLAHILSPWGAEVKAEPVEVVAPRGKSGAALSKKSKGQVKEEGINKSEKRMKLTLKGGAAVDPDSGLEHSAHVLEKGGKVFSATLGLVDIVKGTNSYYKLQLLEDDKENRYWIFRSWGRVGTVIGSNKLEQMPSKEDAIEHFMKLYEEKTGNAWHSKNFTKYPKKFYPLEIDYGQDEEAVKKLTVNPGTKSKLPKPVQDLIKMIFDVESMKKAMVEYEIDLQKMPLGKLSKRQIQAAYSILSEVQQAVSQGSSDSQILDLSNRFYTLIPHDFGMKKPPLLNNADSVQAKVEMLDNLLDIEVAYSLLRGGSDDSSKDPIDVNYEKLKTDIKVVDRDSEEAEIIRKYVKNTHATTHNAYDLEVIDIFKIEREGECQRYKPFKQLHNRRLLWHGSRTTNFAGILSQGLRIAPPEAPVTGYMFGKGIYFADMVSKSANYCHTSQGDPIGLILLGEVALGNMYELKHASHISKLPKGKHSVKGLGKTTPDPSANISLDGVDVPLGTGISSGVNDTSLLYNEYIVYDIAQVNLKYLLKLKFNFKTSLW

SMILES	IC50 (DLD-1 BRCA2−/− cells) [nM]	IC50 (PARP) [nM]
CC[C@H](C)[C@H](NC(=O)[C@@H]1CCCN1C(=O)[C@H](CC(N)=O)NC(=O)[C@H](CCC(N)=O)NC(=O)[C@H](CCC(=O)O)NC(=O)[C@H](C)N)C(=O)N[C@@H](Cc1ccc(O)cc1)C(=O)N[C@@H](Cc1c[nH]c2ccccc12)C(=O)N[C@@H](C)C(=O)N[C@@H](CCCNC(=N)N)C(=O)N[C@@H](Cc1ccc(O)cc1)C(=O)N[C@@H](C)C(=O)N[C@@H](CC(=O)O)C(=O)N[C@@H](Cc1c[nH]c2ccccc12)C(=O)N[C@@H](CC(C)C)C(=O)N[C@@H](Cc1ccccc1)C(=O)N[C@H](C(=O)N[C@H](C(=O)N1CCC[C@H]1C(=O)N[C@@H](CC(C)C)C(=O)N[C@@H](CC(C)C)C(=O)N[C@@H](CC(C)C)C(=O)N[C@@H](CC(C)C)C(=O)N[C@@H](CC(=O)O)C(=O)N[C@@H](CC(C)C)C(=O)N[C@@H](C)C(=O)N[C@@H](CC(C)C)C(=O)N[C@@H](CC(C)C)C(=O)N[C@H](C(=O)N[C@@H](CC(=O)O)C(=O)N[C@@H](C)C(=O)N[C@@H](CC(=O)O)C(=O)N[C@@H](CCC(=O)O)C(=O)N[C@@H](CSSCCOC(=O)NCN1c2cc(F)cc3c(=O)[nH]nc(c23)[C@H](c2ncnn2C)[C@H]1c1ccc(F)cc1)C(=O)NCC(=O)O)C(C)C)[C@@H](C)O)[C@@H](C)O [Example 12] (H-AEQNPIYWARYADWLFTTPLLLLDLALLVDADEC(X1)G-OH; N-terminus and C-terminus assumed)	162	0.47
CC(C)C[C@H](NC(=O)[C@H](Cc1ccc(O)cc1)NC(=O)[C@H](C)NC(=O)[C@H](CCCNC(=N)N)NC(=O)[C@H](Cc1c[nH]c2ccccc12)NC(=O)[C@@H]1CCCN1C(=O)[C@H](CC(N)=O)NC(=O)[C@H](CCC(N)=O)NC(=O)[C@H](CC(=O)O)NC(=O)[C@H](CC(=O)O)NC(=O)[C@H](C)N)C(=O)N[C@@H](CC(=O)O)C(=O)N[C@@H](CC(C)C)C(=O)N[C@@H](CC(C)C)C(=O)N[C@@H](Cc1ccccc1)C(=O)N1CCC[C@H]1C(=O)N[C@H](C(=O)N[C@@H](CC(=O)O)C(=O)N[C@H](C(=O)N[C@@H](CC(C)C)C(=O)N[C@@H](CC(C)C)C(=O)N[C@@H](CC(C)C)C(=O)N[C@@H](CC(=O)O)C(=O)N[C@@H](CC(C)C)C(=O)N[C@@H](CC(C)C)C(=O)N[C@@H](Cc1c[nH]c2ccccc12)C(=O)N[C@@H](CSSCCOC(=O)NCN1c2cc(F)cc3c(=O)[nH]nc(c23)[C@H](c2ncnn2C)[C@H]1c1ccc(F)cc1)C(=O)NCC(=O)O)[C@@H](C)O)[C@@H](C)O [Example 16]	84	0.61
CC(C)C[C@H](NC(=O)[C@H](Cc1ccc(O)cc1)NC(=O)[C@H](C)NC(=O)[C@H](CCCNC(=N)N)NC(=O)[C@H](Cc1c[nH]c2ccccc12)NC(=O)[C@@H]1CCCN1C(=O)[C@H](CC(N)=O)NC(=O)[C@H](CCC(N)=O)NC(=O)[C@H](CC(=O)O)NC(=O)[C@H](CC(=O)O)NC(=O)[C@H](C)N)C(=O)N[C@@H](CC(=O)O)C(=O)N[C@@H](CC(C)C)C(=O)N[C@@H](CC(C)C)C(=O)N[C@@H](Cc1ccccc1)C(=O)N1CCC[C@H]1C(=O)N[C@H](C(=O)N[C@@H](CC(=O)O)C(=O)N[C@H](C(=O)N[C@@H](CC(C)C)C(=O)N[C@@H](CC(C)C)C(=O)N[C@@H](CC(C)C)C(=O)N[C@@H](CC(=O)O)C(=O)N[C@@H](CC(C)C)C(=O)N[C@@H](CC(C)C)C(=O)N[C@@H](Cc1c[nH]c2ccccc12)C(=O)N[C@@H](CC(=O)O)C(=O)N[C@@H](C)C(=O)N[C@@H](CC(=O)O)C(=O)N[C@@H](CCC(=O)O)C(=O)N[C@@H](CSSCCOC(=O)NCN1c2cc(F)cc3c(=O)[nH]nc(c23)[C@H](c2ncnn2C)[C@H]1c1ccc(F)cc1)C(=O)NCC(=O)O)[C@@H](C)O)[C@@H](C)O [Example 17]	50	0.41
CC(C)C[C@H](NC(=O)[C@H](Cc1ccc(O)cc1)NC(=O)[C@H](C)NC(=O)[C@H](CCCNC(=N)N)NC(=O)[C@H](Cc1c[nH]c2ccccc12)NC(=O)[C@@H]1CCCN1C(=O)[C@H](CC(N)=O)NC(=O)[C@H](CCC(N)=O)NC(=O)[C@H](CC(=O)O)NC(=O)[C@H](CC(=O)O)NC(=O)[C@H](C)N)C(=O)N[C@@H](CC(=O)O)C(=O)N[C@@H](CC(C)C)C(=O)N[C@@H](CC(C)C)C(=O)N[C@@H](Cc1ccccc1)C(=O)N1CCC[C@H]1C(=O)N[C@H](C(=O)N[C@@H](CC(=O)O)C(=O)N[C@H](C(=O)N[C@@H](CC(C)C)C(=O)N[C@@H](CC(C)C)C(=O)N[C@@H](CC(C)C)C(=O)N[C@@H](CC(=O)O)C(=O)N[C@@H](CC(C)C)C(=O)N[C@@H](CC(C)C)C(=O)N[C@@H](Cc1c[nH]c2ccccc12)C(=O)N[C@@H](CC(=O)O)C(=O)N[C@@H](C)C(=O)N[C@@H](CC(=O)O)C(=O)N[C@@H](CCC(=O)O)C(=O)N[C@@H](CSS[C@H](C)COC(=O)NCN1c2cc(F)cc3c(=O)[nH]nc(c23)[C@H](c2ncnn2C)[C@H]1c1ccc(F)cc1)C(=O)NCC(=O)O)[C@@H](C)O)[C@@H](C)O [Example 41]	43	1.9
CC[C@H](C)[C@H](NC(=O)[C@@H]1CCCN1C(=O)[C@H](CC(N)=O)NC(=O)[C@H](CCC(N)=O)NC(=O)[C@H](CCC(=O)O)NC(=O)[C@H](C)N)C(=O)N[C@@H](Cc1ccc(O)cc1)C(=O)N[C@@H](Cc1c[nH]c2ccccc12)C(=O)N[C@@H](C)C(=O)N[C@@H](CCCNC(=N)N)C(=O)N[C@@H](Cc1ccc(O)cc1)C(=O)N[C@@H](C)C(=O)N[C@@H](CC(=O)O)C(=O)N[C@@H](Cc1c[nH]c2ccccc12)C(=O)N[C@@H](CC(C)C)C(=O)N[C@@H](Cc1ccccc1)C(=O)N[C@H](C(=O)N[C@H](C(=O)N1CCC[C@H]1C(=O)N[C@@H](CC(C)C)C(=O)N[C@@H](CC(C)C)C(=O)N[C@@H](CC(C)C)C(=O)N[C@@H](CC(C)C)C(=O)N[C@@H](CC(=O)O)C(=O)N[C@@H](CC(C)C)C(=O)N[C@@H](C)C(=O)N[C@@H](CC(C)C)C(=O)N[C@@H](CC(C)C)C(=O)N[C@H](C(=O)N[C@@H](CC(=O)O)C(=O)N[C@@H](C)C(=O)N[C@@H](CC(=O)O)C(=O)N[C@@H](CCC(=O)O)C(=O)N[C@@H](CSSC1(COC(=O)NCN2c3cc(F)cc4c(=O)[nH]nc(c34)[C@H](c3ncnn3C)[C@H]2c2ccc(F)cc2)CCC1)C(=O)NCC(=O)O)C(C)C)[C@@H](C)O)[C@@H](C)O [Example 39] (H-AEQNPIYWARYADWLFTTPLLLLDLALLVDADEC(X8)G-OH; N-terminus and C-terminus assumed)	104	3
CC[C@H](C)[C@H](NC(=O)[C@@H]1CCCN1C(=O)[C@H](CC(N)=O)NC(=O)[C@H](CCC(N)=O)NC(=O)[C@H](CCC(=O)O)NC(=O)[C@H](C)N)C(=O)N[C@@H](Cc1ccc(O)cc1)C(=O)N[C@@H](Cc1c[nH]c2ccccc12)C(=O)N[C@@H](C)C(=O)N[C@@H](CCCNC(=N)N)C(=O)N[C@@H](Cc1ccc(O)cc1)C(=O)N[C@@H](C)C(=O)N[C@@H](CC(=O)O)C(=O)N[C@@H](Cc1c[nH]c2ccccc12)C(=O)N[C@@H](CC(C)C)C(=O)N[C@@H](Cc1ccccc1)C(=O)N[C@H](C(=O)N[C@H](C(=O)N1CCC[C@H]1C(=O)N[C@@H](CC(C)C)C(=O)N[C@@H](CC(C)C)C(=O)N[C@@H](CC(C)C)C(=O)N[C@@H](CC(C)C)C(=O)N[C@@H](CC(=O)O)C(=O)N[C@@H](CC(C)C)C(=O)N[C@@H](C)C(=O)N[C@@H](CC(C)C)C(=O)N[C@@H](CC(C)C)C(=O)N[C@H](C(=O)N[C@@H](CC(=O)O)C(=O)N[C@@H](C)C(=O)N[C@@H](CC(=O)O)C(=O)N[C@@H](CCC(=O)O)C(=O)N[C@@H](CSS[C@@H](C)COC(=O)NCN1c2cc(F)cc3c(=O)[nH]nc(c23)[C@H](c2ncnn2C)[C@H]1c1ccc(F)cc1)C(=O)NCC(=O)O)C(C)C)[C@@H](C)O)[C@@H](C)O [Example 13] (H-AEQNPIYWARYADWLFTTPLLLLDLALLVDADEC(X7)G-OH; N-terminus and C-terminus assumed)	51	1
